In US5414001A, “Antineoplastic pyrrolo[4,3,2-de]quinolin-8(1H)-ones” (American Cyanamid Company, priority 1993, dated 1995):
Where “and” joins values, the source holds several entries; their conditions need not be identical. Equal values may be shown once. Where a name gives a salt, the structure may show the parent alone.

What was measured:
CaCo2 / CX1 = conditions: human, Caco-2, 48 h
Experimental: The cytotoxic activity of the pyrrolo[4,3,2-de]quinolin-8(1H)-ones against a panel of >20 human tumor cell lines is determined using the Sulforhodamine B protein dye-binding colorimetric cytotoxicity assay (SRB) described by Skehan et al. (Journal National Cancer Institute 82:1107-1112, 1990), as modified by Monks et al., (Journal National Cancer Institute 83: 757-766, 1991). […] Positive controls (i.e., etoposide) are included in every experiment. Treatments are for 48 hours, after which cells are fixed in 10% trichloroacetic acid (10% final concentration), washed five times with deionized water and stained with SRB solution (0.4% in glacial acetic acid). Protein-bound stain is solubilized with 0.1 ml tris buffer and the adsorbance values are recorded with a microplate reader. Duplicate plates of cells are fixed with trichloroacetic acid at the time of drug addition to establish To values, as described by Monks et al. (JNCl, 83: 757-766, 1991). The effect of drug treatments over the five-long range of concentrations is calculated using the formula, T--To/C--To, to determine the IC50 values.
3) The ratio values for DDP/S; CaCo2/CX1; MIP/SW620, and; HCT15/SKBR3 refer to the IC50 value for resistant cell lines included in the tumor cell panel, divided by the IC50 value for corresponding drug sensitive cell lines. For example, DDP is a Cisplatin resistant ovarian carcinoma cell line, and S is the corresponding parent drug sensitive ovarian carcinoma cell line (A2780). […] CaCo2 is a slow growing non P-glycoprotein multidrug resistant colon carcinoma cell line. MIP is a colon carcinoma cell line that expresses P-glycoprotein and is multidrug resistant; SW620 is a drug sensitive colon carcinoma cell line. HCT15 is a colon carcinoma cell line that is resistant to topoisomerase inhibitors and SKBR3 is a breast carcinoma that is very sensitive to topoisomerase inhibitors.

HCT15 / SKBR3 = assay: SRB cytotoxicity ratio HCT15/SKBR3 (topoisomerase resistance); format: cell-based, human; conditions: human, hct15/skbr3 cells, 2880 min
S. aureus cipro r 400 = assay: Antibacterial agar diffusion assay; format: cell-based; conditions: 64 microgram/ml; H = hazy zones
Experimental: (§1) One hundred fifty milliliters of agar medium are seeded with 1 ml of diluted culture and aseptically poured into 9 inch×9 inch Nunc bioassay plates. The twenty-five microliters of the test sample dissolved in DMSO are placed in 5.5 mmwells that are cut into agar layer which has been pre-seeded with the test bacterial strains. The plates are incubated at 37° C. for 18-24 hours. Zones of inhibition are recorded.
(§2) ALL SAMPLES IN 20% DMSO
(§3) AGAR DIFFUSION ASSAY 25 microliter sample in 5.5 mm well

E. faecium 379 = assay: Antibacterial agar diffusion assay; format: cell-based; conditions: H = hazy zones
Experimental: as §1, §2, §3

[1] = test system: panel of >20 human tumor cell lines; assay: In vitro tumor panel evaluation, Sulforhodamine B (SRB) cytotoxicity assay; format: cell-based
S. aureus meth r 310 = assay: Antibacterial agar diffusion assay; format: cell-based; conditions: H = hazy zones
[2] = test system: DDP (Cisplatin resistant ovarian carcinoma cell line) / S (A2780); assay: SRB cytotoxicity ratio DDP/S (cisplatin resistance); format: cell-based, human; conditions: IC50 resistant / IC50 sensitive cell line; cisplatin resistance; 2880 min
BR513 = format: cell-based
S. aureus 375 = assay: Antibacterial agar diffusion assay; format: cell-based; conditions: H = hazy zones
MIP / SW620 = assay: SRB cytotoxicity ratio MIP/SW620 (MDR, P-glycoprotein resistance); format: cell-based, human; conditions: human, mip/sw620 cells, 2880 min
E. coli 300 = assay: Antibacterial agar diffusion assay; format: cell-based; set-up: concentration or dose not given beside the values
K. pneumoniae 53 = assay: Antibacterial agar diffusion assay; format: cell-based; conditions: H = hazy zones
C. freundii 395 = assay: Antibacterial agar diffusion assay; format: cell-based; conditions: 1000 microgram/ml; H = hazy zones
B. subtilis 17 = assay: Antibacterial agar diffusion assay; format: cell-based; conditions: H = hazy zones

O=C1C(NC2Cc3cc(Br)c(O)cc3S2)=CC2=NCCc3c[nH]c1c32 (centres unmarked) [Example 6, trifluoroacetate]
CaCO2/CX1 IC50 ratio (CaCo2 / CX1): 6.3 | HCT15/SKBR3 IC50 ratio (HCT15 / SKBR3): 3.5 | ZONES OF INHIBITION (S. aureus cipro r 400): 11H | ZONES OF INHIBITION (E. faecium 379; 64 microgram/ml): 9H | ZONES OF INHIBITION (E. faecium 379; 250 microgram/ml): 11H | ZONES OF INHIBITION (E. faecium 379; 1000 microgram/ml): 12H | more potent than the reference topoisomerase inhibitor, etoposide [1]: 1 log | ZONES OF INHIBITION (S. aureus meth r 310; 64 microgram/ml): 8 MM | ZONES OF INHIBITION (S. aureus meth r 310; 250 microgram/ml): 9 MM | ZONES OF INHIBITION (S. aureus meth r 310; 1000 microgram/ml): 10 MM | DDP/S IC50 ratio [2]: 1.8 | BIA BR513 (BR513): 8T | ZONES OF INHIBITION (S. aureus 375; 250 microgram/ml): 7H | MIP/SW620 IC50 ratio (MIP / SW620): 5.1 | ZONES OF INHIBITION (E. coli 300; trifluoroacetate): 12 and 11 and 9

CINODINE
ZONES OF INHIBITION (S. aureus meth r 310; 1000 microgram/ml): 7 MM | ZONES OF INHIBITION (K. pneumoniae 53; 16 microgram/ml): 8 MM | ZONES OF INHIBITION (K. pneumoniae 53; 64 microgram/ml): 10 MM | ZONES OF INHIBITION (K. pneumoniae 53; 250 microgram/ml): 12 MM | ZONES OF INHIBITION (C. freundii 395): 8H | ZONES OF INHIBITION (S. aureus 375; 250 microgram/ml): 7 MM | ZONES OF INHIBITION (S. aureus 375; 1000 microgram/ml): 9 MM | ZONES OF INHIBITION (B. subtilis 17; 64 microgram/ml): 8 MM | ZONES OF INHIBITION (B. subtilis 17; 250 microgram/ml): 11 MM | ZONES OF INHIBITION (B. subtilis 17; 1000 microgram/ml): 13 MM | ZONES OF INHIBITION (E. coli 300; 1000 microgram/ml, H = hazy zones): 9 MM
